Data on 13 compounds can be found in ChEMBL document CHEMBL6177981, “Bardoxolone Derivatives as Novel Pseudo-Natural Necroptosis Inhibitors by Destabilizing HSP90 Client Proteins” (J Med Chem, 2025).

Activity calls are given as the source filed them. The calls are words filed in the database; no cut-off is given here.

For assay [1], the system named is L929. The assay can be described thus: Anti-necroptotic activity in TZ-induced mouse L929 cells assessed as increase in cell viability preincubated with Z-VAD-FMK followed by mTNFalpha stimulation for 4 hrs and measured after compound addition by CellTiter-Lumi luminescent cell viability assay. It counts as functional, cell-based.
The test system of assay [2] is HT-29. The assay can be described thus: Anti-necroptotic activity in TSZ-induced human HT-29 cells assessed as increase in cell viability preincubated with Z-VAD-FMK and SM164 for 30 mins followed by TNFalpha stimulation for 12 hrs and measured after compound addition by CellTiter-Lumi luminescent cell viability assay. In kind it is functional, cell-based.
Assay [3] relates to RAW264.7. The assay can be described thus: Anti-necroptotic activity in LZ-induced mouse RAW264.7 cells assessed as increase in cell viability preincubated with compound followed by LPS and Z-VAD-FMK stimulation and measured after 16 hrs by CellTiter-Lumi luminescent cell viability assay. In kind it is functional, cell-based.
Assay [4] relates to L929. The assay can be described thus: Anti-necroptotic activity in TZ-induced mouse L929 cells assessed as protection against cell death at 10 uM measured within 5 hrs by Live-cell super-resolution panoramic microscopic analysis. In kind it is functional, cell-based.
Assay [5] has as its target Heat shock protein HSP90 (Homo sapiens) (UniProt P07900+P08238). The assay can be described thus: Inhibition of HSP90 in TSZ-induced human HT-29 cells assessed as reduction in EGFR protein level at 10 uM preincubated with compound followed by Z-VAD-FMK, SM164 and TNFalpha stimulation and measured after 6 hrs by Western blot analysis. In kind it is cell-based.
Assay [6] deals with T1, Receptor-interacting serine/threonine-protein kinase 1 (Homo sapiens) (UniProt Q13546).
T1 sequence (whole entry): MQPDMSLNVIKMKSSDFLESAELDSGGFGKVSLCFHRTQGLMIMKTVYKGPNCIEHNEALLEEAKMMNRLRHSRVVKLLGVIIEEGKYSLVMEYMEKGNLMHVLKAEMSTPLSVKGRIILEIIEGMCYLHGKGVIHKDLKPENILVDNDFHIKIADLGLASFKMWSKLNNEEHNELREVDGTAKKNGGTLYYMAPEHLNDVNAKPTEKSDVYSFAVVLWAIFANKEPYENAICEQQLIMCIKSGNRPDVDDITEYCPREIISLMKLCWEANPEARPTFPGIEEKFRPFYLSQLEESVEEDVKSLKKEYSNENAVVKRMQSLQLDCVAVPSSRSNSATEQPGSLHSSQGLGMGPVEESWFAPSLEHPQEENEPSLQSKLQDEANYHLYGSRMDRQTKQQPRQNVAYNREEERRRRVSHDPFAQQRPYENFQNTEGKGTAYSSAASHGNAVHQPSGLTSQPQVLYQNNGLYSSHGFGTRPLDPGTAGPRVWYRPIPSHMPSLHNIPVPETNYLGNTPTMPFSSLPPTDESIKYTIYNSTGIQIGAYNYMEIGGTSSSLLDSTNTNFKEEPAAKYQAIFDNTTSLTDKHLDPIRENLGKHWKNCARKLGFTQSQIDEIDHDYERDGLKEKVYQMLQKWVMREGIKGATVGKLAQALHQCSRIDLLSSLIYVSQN
The assay can be described thus: Inhibition of RIPK1 phosphorylation at S166 residue in TSZ-induced human HT-29 cells at 10 uM preincubated with compound followed by Z-VAD-FMK, SM164 and TNFalpha stimulation and measured after 6 hrs by Western blot analysis. In kind it is cell-based.

Assay [7] deals with Receptor-interacting serine/threonine-protein kinase 3 (Homo sapiens) (UniProt Q9Y572). The assay can be described thus: Inhibition of RIPK3 phosphorylation at S227 residue in TSZ-induced human HT-29 cells at 10 uM preincubated with compound followed by Z-VAD-FMK, SM164 and TNFalpha stimulation and measured after 6 hrs by Western blot analysis. It counts as cell-based.
Chain of Receptor-interacting serine/threonine-protein kinase 3 (Homo sapiens) (Q9Y572 whole entry, looked up, the tested form may be a part): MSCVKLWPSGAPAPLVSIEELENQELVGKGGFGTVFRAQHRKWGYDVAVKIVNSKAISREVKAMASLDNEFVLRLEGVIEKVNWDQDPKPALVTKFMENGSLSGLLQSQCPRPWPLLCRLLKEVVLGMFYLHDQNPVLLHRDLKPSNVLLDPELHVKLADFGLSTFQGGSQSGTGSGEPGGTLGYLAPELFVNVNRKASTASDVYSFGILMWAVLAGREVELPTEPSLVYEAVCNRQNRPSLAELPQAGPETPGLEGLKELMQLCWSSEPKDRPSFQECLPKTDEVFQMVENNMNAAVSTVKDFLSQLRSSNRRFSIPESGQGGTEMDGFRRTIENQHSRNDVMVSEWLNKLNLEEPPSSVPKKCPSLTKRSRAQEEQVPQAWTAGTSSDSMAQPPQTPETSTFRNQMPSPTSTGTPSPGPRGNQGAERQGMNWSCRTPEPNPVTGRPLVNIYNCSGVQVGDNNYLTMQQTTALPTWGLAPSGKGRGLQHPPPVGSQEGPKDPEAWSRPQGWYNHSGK
For assay [8], the target named is T2, Mixed lineage kinase domain-like protein (Homo sapiens) (UniProt Q8NB16).
T2 sequence (whole entry): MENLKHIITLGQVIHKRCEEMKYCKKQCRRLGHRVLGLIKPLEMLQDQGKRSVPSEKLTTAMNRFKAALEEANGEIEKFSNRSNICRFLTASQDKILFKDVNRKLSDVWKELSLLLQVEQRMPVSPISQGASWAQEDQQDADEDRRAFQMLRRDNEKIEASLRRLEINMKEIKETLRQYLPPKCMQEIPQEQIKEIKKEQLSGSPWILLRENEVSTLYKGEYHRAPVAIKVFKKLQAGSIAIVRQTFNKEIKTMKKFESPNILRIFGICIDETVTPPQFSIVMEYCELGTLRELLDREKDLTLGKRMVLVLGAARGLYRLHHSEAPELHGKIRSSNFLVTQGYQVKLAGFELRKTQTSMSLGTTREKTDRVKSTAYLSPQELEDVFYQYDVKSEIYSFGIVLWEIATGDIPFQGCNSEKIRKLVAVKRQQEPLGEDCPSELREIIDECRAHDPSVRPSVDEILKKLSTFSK
The assay can be described thus: Inhibition of MLKL phosphorylation at S358 residue in TSZ-induced human HT-29 cells at 10 uM preincubated with compound followed by Z-VAD-FMK, SM164 and TNFalpha stimulation and measured after 6 hrs by Western blot analysis. In kind it is cell-based.

The subject of assay [9] is HT-29. The assay can be described thus: Effect on RIPK1 protein level in human HT-29 cells at 10 microg/ml incubated for 9 hrs by Western blot analysis. The settings on record: dose 10.0 µg/ml. In kind it is functional, cell-based.
In assay [10] the test system is HT-29. The assay can be described thus: Effect on RIPK3 protein level in human HT-29 cells at 10 microg/ml incubated for 9 hrs by Western blot analysis. In kind it is functional, cell-based. To be noted: dose 10.0 µg/ml.
Assay [11] deals with HT-29. The assay can be described thus: Effect on MLKL protein level in human HT-29 cells at 10 microg/ml incubated for 9 hrs by Western blot analysis. To be noted: dose 10.0 µg/ml. In kind it is functional, cell-based.

In the case of `CC1(C)CC[C@]2(C(=O)Nc3ccc4scnc4c3)CC[C@]3(C)[C@H](C(=O)C=C4[C@@]5(C)C=C(C#N)C(=O)C(C)(C)[C@@H]5CC[C@]43C)[C@@H]2C1`, the values for the EC50 in assay [1] and in assay [2] were 4.01 µM and 1.38 µM, respectively. Moreover, the Activity result in assay [3] is “Dose-dependent-effect”.

Turning to `CC1(C)CC[C@]2(C(=O)O)CC[C@]3(C)[C@H](C(=O)C=C4[C@@]5(C)C=C(C#N)C(=O)C(C)(C)[C@@H]5CC[C@]43C)[C@@H]2C1` [BARDOXOLONE], the figures for the EC50 in assay [1] and in assay [2] were over 10 µM and 2.52 µM, respectively. For the same compound, in assay [4], the outcome was inactive. For the same compound, in assay [5], the inhibition result was “Active”. In addition, the inhibition result in assay [6], in assay [7] and in assay [8] was “inactive” in each case.

For the compound `CC1(C)CC[C@]2(C(=O)Nc3ccc4ncoc4c3)CC[C@]3(C)[C@H](C(=O)C=C4[C@@]5(C)C=C(C#N)C(=O)C(C)(C)[C@@H]5CC[C@]43C)[C@@H]2C1`, the figures for the EC50 in [1] and in [2] were 2.84 µM and 2 µM, respectively. Also, in [3], the Activity entry was “Dose-dependent-effect”.

For `CC1(C)CC[C@]2(C(=O)NC3(c4ccccc4)CC3)CC[C@]3(C)[C@H](C(=O)C=C4[C@@]5(C)C=C(C#N)C(=O)C(C)(C)[C@@H]5CC[C@]43C)[C@@H]2C1`, the figures for the EC50 in assay [1] and in [2] were 4.8 µM and 2.09 µM, respectively. Further, the Activity result in [3] is “Dose-dependent-effect”.

As to `CC1(C)CC[C@]2(C(=O)Nc3ccc4c(c3)OCO4)CC[C@]3(C)[C@H](C(=O)C=C4[C@@]5(C)C=C(C#N)C(=O)C(C)(C)[C@@H]5CC[C@]43C)[C@@H]2C1`, the concentration giving a half-maximal response (EC50) in [1] was over 10 µM; in [2] it was 0.89 µM.

As to `CC1(C)CC[C@]2(C(=O)N3Cc4ccccc4C3)CC[C@]3(C)[C@H](C(=O)C=C4[C@@]5(C)C=C(C#N)C(=O)C(C)(C)[C@@H]5CC[C@]43C)[C@@H]2C1`, the concentration giving a half-maximal response (EC50) is over 10 µM in assay [1] and 1.65 µM in assay [2].

Take `CC1(C)CC[C@]2(C(=O)Nc3nsc4ccccc34)CC[C@]3(C)[C@H](C(=O)C=C4[C@@]5(C)C=C(C#N)C(=O)C(C)(C)[C@@H]5CC[C@]43C)[C@@H]2C1`: the figures for the EC50 in assay [1] and in assay [2] were over 10 µM and 3.96 µM, respectively.

For the compound `CC1(C)CC[C@]2(C(=O)Nc3ccc4oncc4c3)CC[C@]3(C)[C@H](C(=O)C=C4[C@@]5(C)C=C(C#N)C(=O)C(C)(C)[C@@H]5CC[C@]43C)[C@@H]2C1`, the EC50 in assay [1] is over 10 µM; in assay [2], 3.28 µM.

In the case of `CC1(C)CC[C@]2(C(=O)N3CCC(c4ccccc4)C3)CC[C@]3(C)[C@H](C(=O)C=C4[C@@]5(C)C=C(C#N)C(=O)C(C)(C)[C@@H]5CC[C@]43C)[C@@H]2C1` (stereo not given in full), the EC50 in assay [1] was over 10 µM; in [2] it was 3.81 µM.

Regarding `COC(=O)[C@]12CCC(C)(C)C[C@H]1[C@H]1C(=O)C=C3[C@@]4(C)C5C(C(=O)C(C)(C)[C@@H]4CC[C@@]3(C)[C@]1(C)CC2)N5CC#N` (stereo not given in full), the EC50 in assay [1] and in assay [2] was over 10 µM each time.

For `CC1(C)CC[C@]2(C(=O)n3cnc4ccccc43)CC[C@]3(C)[C@H](C(=O)C=C4[C@@]5(C)C=C(C#N)C(=O)C(C)(C)[C@@H]5CC[C@]43C)[C@@H]2C1`, the EC50 is over 10 µM in assay [1] and 2.35 µM in assay [2].

With `CC1(C)CC[C@]2(C(=O)Nc3nc4ccccc4s3)CC[C@]3(C)[C@H](C(=O)C=C4[C@@]5(C)C=C(C#N)C(=O)C(C)(C)[C@@H]5CC[C@]43C)[C@@H]2C1`, the figures for the EC50 in assay [1] and in [2] were over 10 µM and 3.8 µM, respectively.

Regarding `C[C@@H]1C[C@@H]([C@H](O)CC2CC(=O)NC(=O)C2)C(=O)[C@@H](C)C1`, the result in assay [9], in [10] and in assay [11] was inactive.
